pEC50: −log10 of the molar value.

The first assay has as its system HEK293T cells carrying the ATF4 luciferase reporter. In words: ATF4-Luc assay (in vitro model of vanishing white matter disease). The note with it: HEK293T cells with ATF4 5'-UTR firefly luciferase reporter; 1 μg/mL tunicamycin; 7 hours; One Glo luminescence. Type of assay: cell-based, human. How it is done: In order to test exemplary compounds of the invention in a cellular context, a stable VWMD cell line was first constructed. The ATF4 reporter was prepared by fusing the human full-length ATF4 5′-UTR (NCBI Accession No. BC022088.2) in front of the firefly luciferase (FLuc) coding sequence lacking the initiator methionine as described in Sidrauski et al (eLife 2013). The construct was used to produce recombinant retroviruses using standard methods and the resulting viral supernatant was used to transduce HEK293T cells, which were then subsequently selected with puromycin to generate a stable cell line.
HEK293T cells carrying the ATF4 luciferase reporter were plated on polylysine coated 384-well plates (Greiner Bio-one) at 30,000 cells per well. Cells were treated the next day with 1 μg/mL tunicamycin and 200 nM of a compound of Formula (I) for 7 hours. Luminescence was measured using One Glo (Promega) as specified by the manufacturer. Cells were maintained in DMEM with L-glutamine supplemented with 10% heat-inactivated FBS (Gibco) and Antibiotic-Antimycotic solution (Gibco).
Table 2 below summarizes the EC50 data obtained using the ATF4-Luc assay for exemplary compounds of the invention.
For the compound “2-(4-chloro-3-fluorophenoxy)-N-[3-(5-chloro-1-hydroxy-3-oxo-1,3-dihydro-2H-isoindol-2-yl)bicyclo[1.1.1]pentan-1-yl]acetamide and 2-(4-chloro-3-fluorophenoxy)-N-[3-(5-chloro-3-hydroxy-1-oxo-,3-dihydro-2H-isoindol-2-yl)bicyclo[1.1.1]pentan-1-yl]acetamide [Compound 153]”, the pEC50 was less than 5.70.

Still in this assay, the particulars now being: Homo sapiens, HEK-293T; HEK293T cells with ATF4 5'-UTR firefly luciferase reporter; 1 μg/mL tunicamycin; 7 hours; One Glo luminescence.
For `O=C(COc1ccc(Cl)c(F)c1)NC12CC(N3CC[C@@H](Oc4ccc(Cl)cc4)C3=O)(C1)C2` (single isomer, unassigned) [Compound 102], the pEC50 is 6.00 to 6.60.

Turning to `O=C(COc1ccc(Cl)c(F)c1)NC12CC(N3CC[C@H](Oc4ccc(Cl)cc4)C3=O)(C1)C2` (single isomer, unassigned) [Compound 103], the pEC50 is 6.60 to 7.30. The same measure, in the same setting: under `O=C(COc1ccc(Cl)c(F)c1)NC12CC(N3C(=O)c4cc(Cl)ccc4[C@@H]3O)(C1)C2` (single isomer, unassigned) [Compound 148, 2-(4-chloro-3-fluorophenoxy)-N-{3-[(1)-5-chloro-1-hydroxy-3-oxo-1,3-dihydro-2H-isoindol-2-yl]bicyclo[1.1.1]pentan-1-yl}acetamide] stands less than 5.70; under `O=C(COc1ccc(Cl)c(F)c1)NC12CC(N3C(=O)c4ccc(Cl)cc4[C@H]3O)(C1)C2` (single isomer, unassigned) [Compound 149], 6.00 to 6.60; under `O=C(COc1ccc(Cl)c(F)c1)NC12CC(N3C(=O)c4ccc(Cl)cc4[C@@H]3O)(C1)C2` (single isomer, unassigned) [Compound 150], 5.70 to 6.00. In the case of `O=C(COc1ccc(Cl)c(F)c1)NC12CC(N3C(=O)c4cc(Cl)ccc4[C@H]3O)(C1)C2` (single isomer, unassigned) [Compound 151], the negative-log EC50 (pEC50) is less than 5.70.

As to `O=C(COc1ccc(Cl)c(F)c1)NC12CCC(N3CC[C@@H](c4ccc(Cl)cc4)C3=O)(CC1)C[C@@H]2O` (single isomer, unassigned) [Compound 154], the negative-log EC50 (pEC50) is 6.00 to 6.60. Still for that read-out and setting: under `O=C(COc1ccc(Cl)c(F)c1)NC12CCC(N3CC[C@H](c4ccc(Cl)cc4)C3=O)(CC1)C[C@@H]2O` (single isomer, unassigned) [Compound 155] stands more than 7.30; under `O=C(COc1ccc(Cl)c(F)c1)NC12CC(N3C[C@H](c4ccc(Cl)c(F)c4)OC3=O)(C1)C2` (single isomer, unassigned) [Compound 156], 6.00 to 6.60. Still for that read-out and setting: under `O=C(COc1ccc(Cl)c(F)c1)NC12CC(N3C[C@@H](c4ccc(Cl)c(F)c4)OC3=O)(C1)C2` (single isomer, unassigned) [Compound 157] stands 6.60 to 7.30; under `O=C(COc1ccc(Cl)c(F)c1)NC12CC(N3CCC(Oc4ccc(Cl)c(F)c4)C3=O)(C1)C2` (stereo not drawn) [Compound 100, 2-(4-chloro-3-fluorophenoxy)-N-{3-[3-(4-chloro-3-fluorophenoxy)-2-oxopyrrolidin-1-yl]bicyclo[1.1.1]pentan-1-yl}acetamide], 6.60 to 7.30; under `O=C(COc1ccc(Cl)c(F)c1)NC12CC(N3CCC(Oc4ccc(C(F)(F)F)nc4)C3=O)(C1)C2` (stereo not drawn) [Compound 101, 2-(4-chloro-3-fluorophenoxy)-N-[3-(2-oxo-3-{[6-(trifluoromethyl)pyridin-3-yl]oxy}pyrrolidin-1-yl)bicyclo[1.1.1]pentan-1-yl]acetamide], 6.00 to 6.60. On the same count and under the same terms, under `Cc1nn(C)c(C)c1OC1CCN(C23CC(NC(=O)COc4ccc(Cl)c(F)c4)(C2)C3)C1=O` (stereo not drawn) [Compound 104, 2-(4-chloro-3-fluorophenoxy)-N-(3-{2-oxo-3-[(1,3,5-trimethyl-1H-pyrazol-4-yl)oxy]pyrrolidin-1-yl}bicyclo[1.1.1]pentan-1-yl)acetamide] stands less than 5.70; under `Cc1cc(OC2CCN(C34CC(NC(=O)COc5ccc(Cl)c(F)c5)(C3)C4)C2=O)no1` (stereo not drawn) [Compound 105, 2-(4-chloro-3-fluorophenoxy)-N-(3-{3-[(5-methyl-1,2-oxazol-3-yl)oxy]-2-oxopyrrolidin-1-yl}bicyclo[1.1.1]pentan-1-yl)acetamide], less than 5.70; under `Cn1cc(OC2CCN(C34CC(NC(=O)COc5ccc(Cl)c(F)c5)(C3)C4)C2=O)cn1` (stereo not drawn) [Compound 106, 2-(4-chloro-3-fluorophenoxy)-N-(3-{3-[(1-methyl-H-pyrazol-4-yl)oxy]-2-oxopyrrolidin-1-yl}bicyclo[1.1.1]pentan-1-yl)acetamide], less than 5.70. For the compound `Cn1nc(C(F)(F)F)cc1OC1CCN(C23CC(NC(=O)COc4ccc(Cl)c(F)c4)(C2)C3)C1=O` (stereo not drawn) [Compound 107, 2-(4-chloro-3-fluorophenoxy)-N-[3-(3-{[1-methyl-3-(trifluoromethyl)-1H-pyrazol-5-yl]oxy}-2-oxopyrrolidin-1-yl)bicyclo[1.1.1]pentan-1-yl]acetamide], the pEC50 is less than 5.70.

For the compound `O=C(COc1ccc(Cl)c(F)c1)NC12CC(N3CCN(c4ccc(Cl)c(F)c4)C3=O)(C1)C2` [Compound 108, 2-(4-chloro-3-fluorophenoxy)-N-{3-[3-(4-chloro-3-fluorophenyl)-2-oxoimidazolidin-1-yl]bicyclo[1.1.1]pentan-1-yl}acetamide], the pEC50 is more than 7.30. Same read-out and setting: under `O=C(COc1ccc(Cl)c(F)c1)NC12CCC(N3CC(c4ccc(Cl)c(F)c4)=CC3=O)(CC1)C[C@@H]2O` [Compound 109, 2-(4-chloro-3-fluorophenoxy)-N-{(2S)-4-[4-(4-chloro-3-fluorophenyl)-2-oxo-2,5-dihydro-1H-pyrrol-1-yl]-2-hydroxybicyclo[2.2.2]octan-1-yl}acetamide] stands more than 7.30; under `O=C(COc1ccc(Cl)c(F)c1)NC12CC(N3C(=O)OC[C@@H]3c3ccc(Cl)c(Cl)c3)(C1)C2` [Compound 110, 2-(4-chloro-3-fluorophenoxy)-N-{3-[(4S)-4-(3,4-dichlorophenyl)-2-oxo-1,3-oxazolidin-3-yl]bicyclo[1.1.1]pentan-1-yl}acetamide], less than 5.70. The same measure, in the same setting: under `O=C(COc1ccc(Cl)c(Cl)c1)NC12CC(N3CCN(Cc4ccc(Cl)cc4)C3=O)(C1)C2` [Compound 111, N-(3-{3-[(4-chlorophenyl)methyl]-2-oxoimidazolidin-1-yl}bicyclo[1.1.1]pentan-1-yl)-2-(3,4-dichlorophenoxy)acetamide] stands less than 5.70. As to `O=C(COc1ccc(Cl)c(F)c1)NC12CC(N3CCC(c4ccc(F)c(F)c4)OC3=O)(C1)C2` (stereo not drawn) [Compound 112, 2-(4-chloro-3-fluorophenoxy)-N-{3-[6-(3,4-difluorophenyl)-2-oxo-1,3-oxazinan-3-yl]bicyclo[1.1.1]pentan-1-yl}acetamide], the negative logarithm of the EC50 (pEC50) was less than 5.70. The same measure, in the same setting: under `O=C(COc1ccc(Cl)c(F)c1)NC12CC(C3=NC(c4ccc(Cl)cc4)CO3)(C1)C2` (stereo not drawn) [Compound 113, 2-(4-chloro-3-fluorophenoxy)-N-{3-[4-(4-chlorophenyl)-4,5-dihydro-1,3-oxazol-2-yl]bicyclo[1.1.1]pentan-1-yl}acetamide] stands 6.00 to 6.60. As for `O=C(COc1ccc(Cl)c(F)c1)NC12CC(N3CCN(c4ccc(Cl)cc4)C3=O)(C1)C2` [Compound 114, 2-(4-chloro-3-fluorophenoxy)-N-{3-[3-(4-chlorophenyl)-2-oxoimidazolidin-1-yl]bicyclo[1.1.1]pentan-1-yl}acetamide], the pEC50 was more than 7.30. In the case of `O=C(COc1ccc(Cl)c(F)c1)NC12CC(N3CCN(c4ccccc4)C3=O)(C1)C2` [Compound 115, 2-(4-chloro-3-fluorophenoxy)-N-[3-(2-oxo-3-phenylimidazolidin-1-yl)bicyclo[1.1.1]pentan-1-yl]acetamide], the pEC50 is 6.00 to 6.60.

In the case of `O=C(COc1ccc(Cl)c(F)c1)NC12CC(N3CC(c4ccc(Cl)c(F)c4)OC3=O)(C1)C2` (stereo not drawn) [Compound 116, 2-(4-chloro-3-fluorophenoxy)-N-{3-[5-(4-chloro-3-fluorophenyl)-2-oxo-1,3-oxazolidin-3-yl]bicyclo[1.1.1]pentan-1-yl}acetamide], the pEC50 was 6.60 to 7.30. Still for that read-out and setting: under `O=C(COc1ccc(F)c(Cl)c1)NC12CC(N3Cc4ccccc4C3=O)(C1)C2` [Compound 117, 2-(3-chloro-4-fluorophenoxy)-N-[3-(1-oxo-1,3-dihydro-2H-isoindol-2-yl)bicyclo[1.1.1]pentan-1-yl]acetamide] stands 6.60 to 7.30. On the same count and under the same terms, under `O=C(CCOc1ccc(Cl)cc1)N[C@H]1CC[C@H](N2CCN(c3cnc(C(F)F)cn3)C2=O)CC1` [Compound 118, 3-(4-chlorophenoxy)-N-[(1r,4r)-4-{3-[5-(difluoromethyl)pyrazin-2-yl]-2-oxoimidazolidin-1-yl}cyclohexyl]propanamide] stands less than 5.70; under `O=C(CCOc1ccc(Cl)c(F)c1)N[C@H]1CC[C@H](N2CCN(c3cnc(C(F)F)cn3)C2=O)CC1` [Compound 119, 3-(4-chloro-3-fluorophenoxy)-N-[(1r,4r)-4-{3-[5-(difluoromethyl)pyrazin-2-yl]-2-oxoimidazolidin-1-yl}cyclohexyl]propanamide], 6.00 to 6.60; under `O=C(COc1ccc(Cl)c(Cl)c1)N[C@H]1CC[C@H](N2CCN(c3cnc(C(F)F)cn3)C2=O)CC1` [Compound 120, 2-(3,4-dichlorophenoxy)-N-[(1r,4r)-4-{3-[5-(difluoromethyl)pyrazin-2-yl]-2-oxoimidazolidin-1-yl}cyclohexyl]acetamide], more than 7.30.

Values taken from US20200347033A1, “MODULATORS OF THE INTEGRATED STRESS PATHWAY” (Calico Life Sciences LLC, priority 2017, published 2020).
